The results in this text go back to patent US12522607B2, “Substituted pyrazolo[3,4-d]pyrimidines as wee-1 inhibitors” (WIGEN BIOMEDICINE TECHNOLOGY (SHANGHAI) CO., LTD., priority 2020, dated 2026).

A word on the IC50: it is the concentration that gives 50% inhibition.

One test addresses T1, Wee-1 kinase (Homo sapiens, UniProt P30291).
T1 construct: purchased Invitrogen
Nature of the test: Inhibitory activity against Wee-1 kinase (Lanthra Screen Wee-1 kinase kit, Tracer 178). The test is classed as binding. Conditions: Wee-1 kinase 5 nM, Tracer 178 50 nM, 1 h room temperature. An outline of the steps:
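LanthaScreen binding format: Wee-1 kinase (5 nM final) with Eu-anti-GST antibody (2 nM final) and kinase Tracer 178 (50 nM final), compounds serially diluted in DMSO. 1 h at room temperature before reading. IC50 relative to DMSO control.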

For a further test, the system named is HT29 cells. The test can be described thus: Antiproliferative activity against HT29 cells (Cell Titer-Lumi, ATP content). In kind it is cell-based. Conditions: Homo sapiens, HT-29, 72 after compound addition, read-out: HT-29 cells Anti-proliferative activity (IC50 for the inhibition against HT-29 cell growth). An outline of the steps:
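3000 cells per well, allowed to adhere overnight, then exposed to a gradient dilution of compound for 72 (units as printed). Cellular ATP read by luminescence (Cell Titer-Lumi) as a growth measure; IC50 for growth inhibition calculated.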

T1 sequence (P30291 whole entry): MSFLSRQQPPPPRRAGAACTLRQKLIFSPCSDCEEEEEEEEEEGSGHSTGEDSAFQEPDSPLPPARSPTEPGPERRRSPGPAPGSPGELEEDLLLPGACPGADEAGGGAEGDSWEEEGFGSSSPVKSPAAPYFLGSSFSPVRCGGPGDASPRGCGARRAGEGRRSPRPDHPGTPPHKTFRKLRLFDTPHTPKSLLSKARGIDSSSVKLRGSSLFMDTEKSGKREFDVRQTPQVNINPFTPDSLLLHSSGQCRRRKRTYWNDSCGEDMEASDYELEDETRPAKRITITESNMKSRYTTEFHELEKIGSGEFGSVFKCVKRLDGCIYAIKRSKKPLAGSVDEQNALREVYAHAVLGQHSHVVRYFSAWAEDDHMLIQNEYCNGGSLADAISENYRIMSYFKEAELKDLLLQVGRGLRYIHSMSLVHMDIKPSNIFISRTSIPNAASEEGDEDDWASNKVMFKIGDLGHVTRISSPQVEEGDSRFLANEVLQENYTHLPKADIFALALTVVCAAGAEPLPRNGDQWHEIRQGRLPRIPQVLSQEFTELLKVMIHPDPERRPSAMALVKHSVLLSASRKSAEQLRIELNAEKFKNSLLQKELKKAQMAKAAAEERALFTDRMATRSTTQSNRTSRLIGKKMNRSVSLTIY

In the case of `C=CCn1c(=O)c2cnc(Nc3ccc4c(c3)CCNC4)nc2n1-c1ccc(=O)n(C(C)C)n1` [Compound 228], the IC50 is no more than 30 nM against Wee-1 kinase and no more than 1000 nM in the test with HT29 cells.
In the case of `C=CCn1c(=O)c2cnc(Nc3ccc(N4CCC(N5CCC5)CC4)c(OC)c3)nc2n1-c1ccc(=O)n(C(C)C)n1` [Compound 88], the IC50 was no more than 30 nM against Wee-1 kinase and no more than 1000 nM in the test with HT29 cells.
On to `C=CCn1c(=O)c2cnc(Nc3ccc(C4CCN(C)CC4)c(C)c3)nc2n1-c1cc(F)c(=O)n(C(C)C)c1` [Compound 313], for which the IC50 was no more than 30 nM at Wee-1 kinase and no more than 1000 nM with HT29 cells.
The matching figures for `C=CCn1c(=O)c2cnc(Nc3ccc4c(N5CCC(N(C)C)CC5)cn(C)c4c3)nc2n1-c1ccc(=O)n(C(C)C)n1` [Compound 266]: no more than 30 nM and no more than 1000 nM.
The matching figures for `Cc1cc(Nc2ncc3c(=O)n(C4CC4)n(-c4ccc(=O)n(C(C)(C)C)c4)c3n2)ccc1N1CCN(C)CC1` [Compound 339]: no more than 30 nM and no more than 1000 nM.
The matching figures for `C=CCn1c(=O)c2cnc(Nc3ccc(N4CCC(N5CCOCC5)CC4)c(OC)c3)nc2n1-c1ccc(=O)n(C(C)C)n1` [Compound 150]: no more than 30 nM and no more than 1000 nM.
As for `C=CCn1c(=O)c2cnc(Nc3ccc(N4CCN(C)CC4)c(C)c3)nc2n1-c1ccc(=O)n(C(C)(C)C)n1` [Compound 281], the IC50 is no more than 30 nM at Wee-1 kinase and no more than 1000 nM in the test on HT29 cells.
The matching figures for `CC(C)n1cc(-n2c3nc(Nc4ccc(N5CCN(C)CC5)cc4)ncc3c(=O)n2C(C)C)ccc1=O` [Compound 303]: no more than 30 nM and no more than 1000 nM.
The corresponding values for `C=CCn1c(=O)c2cnc(Nc3ccc4c(c3)CCN(C(C)C)C4)nc2n1-c1ccc(=O)n(C(C)C)n1` [Compound 230] are no more than 30 nM and no more than 1000 nM.
The matching figures for `C=CCn1c(=O)c2cnc(Nc3ccc(N4CC5(CCNC5)C4)c(C)c3)nc2n1-c1ccc(=O)n(C(C)C)n1` [Compound 161]: no more than 30 nM and 1000 to 3000 nM.
`C=CCn1c(=O)c2cnc(Nc3ccc4c(c3)CN(C(C)C)CC4(C)C)nc2n1-c1ccc(=O)n(C(C)C)n1` [Compound 239]: the IC50 against Wee-1 kinase was no more than 30 nM; with HT29 cells, no more than 1000 nM.
The matching figures for `C=CCn1c(=O)c2cnc(Nc3ccc(N4CCC(N)CC4)c(OC)c3)nc2n1-c1ccc(=O)n(C(C)C)n1` [Compound 103]: no more than 30 nM and no more than 1000 nM.
Regarding `C=CCn1c(=O)c2cnc(Nc3ccc4c(c3)C(C)(C)CN(C(C)C)C4)nc2n1-c1ccc(=O)n(C(C)C)n1` [Compound 245], the IC50 was no more than 30 nM against Wee-1 kinase and no more than 1000 nM in the test on HT29 cells.
The corresponding values for `CC(C)n1c(=O)c2cnc(Nc3ccc(N4CCN(C)CC4)cc3)nc2n1-c1ccc(=O)n(C(C)(C)C)n1` [Compound 288] are no more than 30 nM and no more than 1000 nM.
The corresponding values for `C=CCn1c(=O)c2cnc(Nc3ccc(N4CCC5(CC4)CN(C)C5)cc3)nc2n1-c1ccc(=O)n(C(C)C)n1` [Compound 178] are no more than 30 nM and no more than 1000 nM.
The corresponding values for `Cc1cc(Nc2ncc3c(=O)n(C4CC4)n(-c4cc(F)c(=O)n(C(C)C)c4)c3n2)ccc1C1CCN(C)CC1` [Compound 325] are no more than 30 nM and no more than 1000 nM.
With `C=CCn1c(=O)c2cnc(Nc3cc(F)cc(C4CCN(C)CC4)c3)nc2n1-c1ccc(=O)n(C(C)C)n1` [Compound 209], the values for the IC50 on Wee-1 kinase and with HT29 cells were no more than 30 nM and no more than 1000 nM, respectively.
Take `C=CCn1c(=O)c2cnc(Nc3ccc(N4CCN(C)CC4)cn3)nc2n1-c1ccc(=O)n(C(C)C)n1` [Compound 248]: the IC50 on Wee-1 kinase was no more than 30 nM; in the test on HT29 cells it was no more than 1000 nM.
The corresponding values for `C=CCn1c(=O)c2cnc(Nc3cc(N4CCC(N(C)C)CC4)c4ccn(C)c4c3)nc2n1-c1ccc(=O)n(C(C)C)n1` [Compound 257] are no more than 30 nM and no more than 1000 nM.
The matching figures for `C=CCn1c(=O)c2cnc(Nc3ccc(N4CC[C@@H](N(C)C)C4)cc3)nc2n1-c1ccc(=O)n(C(C)C)n1` [Compound 95]: no more than 30 nM and no more than 1000 nM.
With `C=CCn1c(=O)c2cnc(Nc3ccc(N4CCN(C)CC4)cc3)nc2n1-c1ccc(=O)n(C2CCCC2)n1` [Compound 13], the IC50 at Wee-1 kinase was no more than 30 nM; in the test on HT29 cells it was no more than 1000 nM.
The matching figures for `C=CCn1c(=O)c2cnc(Nc3ccc4c(c3)CN(C(C)C)CC43CC3)nc2n1-c1ccc(=O)n(C(C)C)n1` [Compound 233]: no more than 30 nM and no more than 1000 nM.
The matching figures for `C=CCn1c(=O)c2cnc(Nc3cc(C)c(N4CCN(C)CC4)c(F)c3)nc2n1-c1ccc(=O)n(C(C)C)n1` [Compound 56]: no more than 30 nM and no more than 1000 nM.
As for `C=CCn1c(=O)c2cnc(Nc3cc(Cl)c(N4CCN(C)CC4)c(Cl)c3)nc2n1-c1ccc(=O)n(C(C)C)n1` [Compound 62], the IC50 against Wee-1 kinase was no more than 30 nM; with HT29 cells, no more than 1000 nM.
The corresponding values for `C=CCn1c(=O)c2cnc(Nc3ccc(N4CC5(CN(C)C5)C4)c(OC)c3)nc2n1-c1ccc(=O)n(C(C)C)n1` [Compound 159] are no more than 30 nM and no more than 1000 nM.
Turning to `C=CCn1c(=O)c2cnc(Nc3ccc(N4CCC(C)(NC)CC4)c(C)c3)nc2n1-c1ccc(=O)n(C(C)C)n1` [Compound 111], the 50% inhibitory concentration (IC50) is no more than 30 nM at Wee-1 kinase and no more than 1000 nM in the test on HT29 cells.
The corresponding values for `CCn1c(=O)c2cnc(Nc3ccc(N4CCN(C)CC4)c(C)c3)nc2n1-c1ccc(=O)n(C(C)(C)C)c1` [Compound 331] are no more than 30 nM and no more than 1000 nM.
The corresponding values for `C=CCn1c(=O)c2cnc(Nc3cnn(C4CCN(C)CC4)c3)nc2n1-c1ccc(=O)n(C(C)C)n1` [Compound 250] are 30 to 100 nM and 1000 to 3000 nM.
The corresponding values for `C=CCn1c(=O)c2cnc(Nc3ccc(N4CC5(CCNCC5)C4)c(OC)c3)nc2n1-c1ccc(=O)n(C(C)C)n1` [Compound 168] are 30 to 100 nM and 1000 to 3000 nM.
For the molecule `C=CCn1c(=O)c2cnc(Nc3cc(N4CCN(C)CC4)c4cc[nH]c4c3)nc2n1-c1ccc(=O)n(C(C)C)n1` [Compound 252], the values for the IC50 at Wee-1 kinase and with HT29 cells were no more than 30 nM and no more than 1000 nM, respectively.
For `C=CCn1c(=O)c2cnc(Nc3ccc(N4CC(N5CCCC5)C4)c(C)c3)nc2n1-c1ccc(=O)n(C(C)C)n1` [Compound 84], the IC50 against Wee-1 kinase is no more than 30 nM; in the test on HT29 cells it was no more than 1000 nM.
The corresponding values for `C=CCn1c(=O)c2cnc(Nc3cc(Cl)c(N4CCNCC4)c(OC)c3)nc2n1-c1ccc(=O)n(C(C)C)n1` [Compound 65] are no more than 30 nM and no more than 1000 nM.
The corresponding values for `C=CCn1c(=O)c2cnc(Nc3ccc(N4CCC(N5CCOCC5)CC4)c(C)c3)nc2n1-c1ccc(=O)n(C(C)C)n1` [Compound 149] are no more than 30 nM and no more than 1000 nM.
The corresponding values for `C=CCn1c(=O)c2cnc(Nc3ccc(N4CCN(C)CC4)cc3)nc2n1-c1ccc(=O)n(CC2CC2)n1` [Compound 16] are 30 to 100 nM and 1000 to 3000 nM.
With `Cc1cc(Nc2ncc3c(=O)n(C(C)C)n(-c4ccc(=O)n(C(C)C)c4)c3n2)ccc1C1CCN(C)CC1` [Compound 305], the IC50 on Wee-1 kinase is no more than 30 nM; with HT29 cells it was no more than 1000 nM.
The corresponding values for `C=CCn1c(=O)c2cnc(Nc3ccc(N4CCN(C)CC4)c(C)c3)nc2n1-c1cc(F)c(=O)n(C(C)C)c1` [Compound 312] are no more than 30 nM and no more than 1000 nM.
The matching figures for `C=CCn1c(=O)c2cnc(Nc3ccc4c(C5CCN(C)CC5)c[nH]c4c3)nc2n1-c1ccc(=O)n(C(C)C)n1` [Compound 267]: no more than 30 nM and no more than 1000 nM.
The matching figures for `Cc1cc(Nc2ncc3c(=O)n(C(C)C)n(-c4ccc(=O)n(C(C)(C)C)n4)c3n2)ccc1N1CCN(C)CC1` [Compound 289]: no more than 30 nM and no more than 1000 nM.
In the case of `CCn1c(=O)c2cnc(Nc3ccc(C4CCN(C)CC4)c(C)c3)nc2n1-c1ccc(=O)n(C(C)C)n1` [Compound 276], the values for the IC50 against Wee-1 kinase and in the test on HT29 cells were no more than 30 nM and no more than 1000 nM, respectively.
The matching figures for `C=CCn1c(=O)c2cnc(Nc3ccc(N4CCN(C)CC4)cc3)nc2n1-c1ccc(=O)n(C2CC(F)(F)C2)n1` [Compound 15]: 30 to 100 nM and 1000 to 3000 nM.
The matching figures for `C=CCn1c(=O)c2cnc(Nc3ccc4c(c3)CNC4(C)C)nc2n1-c1ccc(=O)n(C(C)C)n1` [Compound 223]: no more than 30 nM and no more than 1000 nM.
The matching figures for `C=CCn1c(=O)c2cnc(Nc3cc(C)c(N4CCNCC4)c(Cl)c3)nc2n1-c1ccc(=O)n(C(C)C)n1` [Compound 57]: no more than 30 nM and no more than 1000 nM.
`CCn1c(=O)c2cnc(Nc3ccc(N4CCN(C)CC4)c(C)c3)nc2n1-c1ccc(=O)n(C(C)C)n1` [Compound 275]: the figures for the IC50 at Wee-1 kinase and in the test with HT29 cells were no more than 30 nM and no more than 1000 nM, respectively.
For `C=CCn1c(=O)c2cnc(Nc3ccc(N4CCN(C)CC4)cc3)nc2n1-c1ccc(=O)n(C)n1` [Compound 1, 2-allyl-1-(1-methyl-6-oxo-1,6-dihydropyridazin-3-yl)-6-((4-(4-methylpiperazin-1-yl)phenyl)amino)-1,2-dihydro-3H-pyrazolo[3,4-d]pyrimidin-3-one], the IC50 at Wee-1 kinase is greater than 100 nM; with HT29 cells, greater than 3000 nM.
The matching figures for `CC(C)n1cc(-n2c3nc(Nc4ccc5c(c4)CN(C)CC54CC4)ncc3c(=O)n2C(C)C)cc(F)c1=O` [Compound 322]: no more than 30 nM and no more than 1000 nM.
The matching figures for `C=CCn1c(=O)c2cnc(Nc3ccc(N4CC5(CCNC5)C4)cc3)nc2n1-c1ccc(=O)n(C(C)C)n1` [Compound 160]: no more than 30 nM and 1000 to 3000 nM.
The corresponding values for `C=CCn1c(=O)c2cnc(Nc3ccc4c(c3)CCN(C)C4)nc2n1-c1ccc(=O)n(C(C)C)n1` [Compound 229] are no more than 30 nM and no more than 1000 nM.
